In paper PMC6482847 (Molecular microbiology, 2019):

Biological target: T1, FtsZAT (Agrobacterium fabrum, UniProt A9CIB1)
T1 sequence (A9CIB1 1-583): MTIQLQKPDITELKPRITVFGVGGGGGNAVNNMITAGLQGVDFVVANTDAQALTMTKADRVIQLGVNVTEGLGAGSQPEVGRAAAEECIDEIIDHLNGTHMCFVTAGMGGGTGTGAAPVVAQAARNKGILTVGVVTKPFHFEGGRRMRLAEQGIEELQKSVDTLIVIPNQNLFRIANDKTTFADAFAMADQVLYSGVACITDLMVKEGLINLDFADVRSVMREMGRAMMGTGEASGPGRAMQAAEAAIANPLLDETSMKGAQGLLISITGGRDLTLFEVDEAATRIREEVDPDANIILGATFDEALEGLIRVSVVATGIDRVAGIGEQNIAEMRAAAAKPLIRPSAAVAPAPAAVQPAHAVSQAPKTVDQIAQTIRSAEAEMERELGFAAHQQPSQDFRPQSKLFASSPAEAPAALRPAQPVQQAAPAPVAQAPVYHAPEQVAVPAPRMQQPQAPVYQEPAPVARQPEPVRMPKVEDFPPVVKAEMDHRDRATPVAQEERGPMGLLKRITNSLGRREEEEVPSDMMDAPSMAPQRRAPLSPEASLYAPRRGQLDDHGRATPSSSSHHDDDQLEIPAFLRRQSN
Test: GTPase assay, inorganic phosphate release
Assay type: biochemical
Settings: 2 mM GTP, 8 µM FtsZAT, 2.5 mM MgCl2, 50 mM HEPES-KOH pH 7.2, 50 mM KCl, 0.1 mM EDTA

Nc1nc2c(ncn2[C@@H]2O[C@H](COP(=O)(O)OP(=O)(O)OP(=O)(O)O)[C@@H](O)[C@H]2O)c(=O)[nH]1 [GTP]
GTPase assay, inorganic phosphate release (colorimetric): it rapidly releases inorganic phosphate suggesting that GTP is hydrolyzed
